Measurements: patent publication US20200255828A1, “METHODS AND COMPOSITIONS FOR ALTERING FUNCTION AND STRUCTURE OF CHROMATIN LOOPS AND/OR DOMAINS” (THE BROAD INSTITUTE, INC., priority 2017, published 2020)

Key:
HCT-116 RAD21-mAC cells [1] = assay: In situ Hi-C: APA for cohesin-independent links between superenhancers; type: cell-based, human
Source text: Applicants first annotated loops in our maps for auxin-treated RAD21-mAC cells using default HiCCUPS parameters for 5, 10, and 25 kb resolutions (Durand et al., 2016b; Rao et al., 2014) with the additional requirement that the peak pixel show […] 4.5-fold enrichment over local expected (in order to remove as many false positives as possible due to rearrangements and assembly issues, see above). Using this procedure, Applicants annotated 81 loops in treated RAD21-mAC cells. […] The false discovery rate for HiCCUPS is much higher in treated cells because the number of true positives is dramatically lower. […] Applicants also noticed that the anchors involved in these 15 loops were often forming long-range loops at distances of tens of megabases and hundreds of megabases. Applicants reasoned that HiCCUPS using default parameters for loop detection was missing many of these extremely long-range loops because of the extra stringency of the HiCCUPS lambda chunking procedure for multiple hypothesis testing for pixels with low counts (i.e. pixels far off the diagonal).
More specifically, Applicants annotated loops by running HiCCUPS at 50 and 100 kb resolutions with the following parameters: p=2,1; w=4,2; fdr=10%, 10%. Applicants additionally filtered loops that were within 5 Mb of the diagonal, had less than a 2-fold observed/expected for any of the local expected, and had fewer than 3 pixels clustered into the peak pixels (see section VI.a.5 of Rao et al., 2014). This annotation yielded 88 loops. […] Combining these 46 loops with the 15 loops annotated with high resolution HiCCUPS, Applicants obtained a final curated list of 61 intrachromosomal cohesin-independent loops.
To annotate these interchromosomal links between pairs of cohesin-independent loop anchors, Applicants used HiCCUPS to calculate local enrichments at 100 kb resolution for all possible interchromosomal pairs of cohesin-independent loop anchors. Applicants then identified enriched focal interchromosomal interactions by filtering for links that were enriched at least 5.5-fold over local background (empirically chosen to ensure a <10% false discovery rate). Using this procedure, Applicants identified 203 interchromosomal cohesin-independent links. This likely underestimates the true number of interchromosomal cohesin-independent links, as evidenced by FIG. SA.
Applicants analyzed the change in strength of cohesin-independent links after auxin treatment by using APA at 100 kb resolution.
Applicants also analyzed induction of cohesin-independent links across an auxin treatment and withdrawal time course. This analysis was performed as above with the cohesin-associated loops and loop domains, but at 100 kb resolution instead of 10 kb resolution and for both our 61 intrachromosomal links and our 203 interchromosomal links. […] Similar results were seen upon performing the time course APA at 100 kb resolution using all intrachromosomal pairs of the 47 superenhancer overlapping anchors in the 88-loop automated list from above (FIG. 11E).

HCT-116 RAD21-mAC cells [2] = assay: 3D-APA of higher-order Hi-C contacts between cohesin-independent loop anchors; type: cell-based, human; conditions: auxin-treated data, 131 intrachromosomal trios; none in untreated
Source text: To probe this question, Applicants examined concatemers—that is, Hi-C reads which bring together 3 or more loci, and indicate that the loci in question were simultaneously co-located in a particular cell during the Hi-C experiment. Applicants identified 57 million unique “triples,” which bring together 3 loci; 32 million unique quadruples, and 130 thousand quintuples (FIG. 5B, see Methods). Instead of a 2-dimensional heatmap, concatemers are naturally represented as an n-dimensional matrix, or tensor, showing the collision frequency (i.e. the frequency of simultaneous physical contact) between any set of n loci in the genome (FIG. 5C). Hubs involving n loci manifest in the n-dimensional contact tensor as peaks in collision frequency with respect to the local n-dimensional neighborhood. […]
Analysis of higher order contacts. […] The Juicer pipeline (Durand, et al, 2016b) separately outputs abnormal chimeric read pairs (i.e. read pairs that map to more than 2 loci). Applicants combined all of the data from untreated RAD21-mAC cells and all our data from treated RAD21-mAC cells (unsynchronized and synchronized/arrested), parsed the chimeric abnormal reads and deduped them (using the same deduping procedure used in Juicer, only applied to three, four or five positions, rather than just two), retaining unique reads that mapped to three or more positions with MAPQ>=10. […]

O=C(O)Cc1c[nH]c2ccccc12 [auxin, indole-3-acetic acid]
strengthening of cohesin-independent links after auxin treatment (HCT-116 RAD21-mAC cells [1]; APA at 100 kb resolution, intra and interchromosomal): ~2 fold | intrachromosomal APA score of cohesin-independent links, treated (HCT-116 RAD21-mAC cells [1]; automatedly generated list, untreated 1.69): 2.75 | interchromosomal APA score of cohesin-independent links, treated (HCT-116 RAD21-mAC cells [1]; automatedly generated list, untreated 2.29): 3.64 | intrachromosomal APA score of cohesin-independent links, treated (HCT-116 RAD21-mAC cells [1]; manually curated list of 61 links, untreated 2.32): 4.02 | interchromosomal APA score of cohesin-independent links, treated (HCT-116 RAD21-mAC cells [1]; manually curated list of 203 links, untreated 3.02): 7.02 | collisions in the center voxel of the 3D APA cube (three cohesin-independent loop anchors) (HCT-116 RAD21-mAC cells [2]): 11
